Key:
maltase = experiment: In vitro maltase test; format: biochemical, pig; details: Table II
Experimental: One maltase inhibitor unit (MIU) is defined as the amount of inhibitor which inhibits two maltase units to the extent of 50%. One maltase unit (MU) is the amount of enzyme which in one minute, under the test conditions specified below, splits 1 μmol of maltose into 2 μmol of glucose. The μmol of glucose formed are determined quantitatively by means of the glucose oxidase reaction under conditions such that further splitting of maltose by the maltase no longer takes place. To carry out the test, 0.05 ml of solubilized maltase [from the mucous membrane of the small intestine of the pig, according to B. Borgstrom, A, Dahlquist, Acta Chem, Scan. […] The mixture is equilibrated for 10 minutes at 35° C and 0.1 ml of an 0.05 M maltose solution in 0.1 M sodium maleate buffer of pH 6.0, pre-warmed to 35° C, is then added. The mixture is incubated for 20 minutes at 35° C and the maltase reaction is stopped by addition of 1 ml of the glucose oxidase reagent described above, and the incubation is continued for a further 30 minutes at 35° C. Thereafter, 1 ml of 50% strength sulfuric acid is added and a measurement carried out at 545 nm against a corresponding blank.

Solubility = format: physicochemical
glucose absorption = experiment: Effect on glucose absorption in fasting rats; format: in vivo, rat
Experimental: The produce an alimentary hyperglycemia and hyperinsulinaemia, groups of 6 fasting rats are given (a) 2.5 g of sucrose, (b) 2.5 g of maltose or (c) 1 g of boiled starch orally, in aqueous solution or suspension. Six other rats are given the same carbohydrates in the same amount and a glycoside hydrolase inhibitor in the amount indicated. In addition, six other rats are given an appropriate volume of saline. The blood glucose and the serum insulin are then measured at short intervals of time, in the blood from the retro-orbital venous plexus. Blood glucose determinations are carried out in the Auto-Analyser device (Technicon), according to Hoffmann: J. biol. Chem. 120, 51 (1937), or enzymatically by means of glucose oxidase and o-dianisidine hydrochloride and the serum insulin determinations are carried out according to the method of Hales and Randle: Biochem. J. 88, 137 (1963).

Maltase Inhibition (maltase) | solubility (Solubility; water, dimethylformamide, dimethylsulfoxide, methanol and hot ethanol) | SMILES | Blood Glucose (Mean ± SD) (glucose absorption; glucose + 30 mg, 15 Min.) | Blood Glucose (Mean ± SD) (glucose absorption; glucose + 30 mg, 30 Min.) | Blood Glucose (Mean ± SD) (glucose absorption; glucose + 30 mg, 45 Min.) | Blood Glucose (Mean ± SD) (glucose absorption; glucose + 60 mg, 15 Min.) | Blood Glucose (Mean ± SD) (glucose absorption; glucose + 60 mg, 30 Min.) | Blood Glucose (Mean ± SD) (glucose absorption; glucose + 60 mg, 45 Min.) | water solubility (Solubility)
5,000 MIU/g | good solubility | C[C@H]1O[C@H](O[C@H]2[C@H](O)[C@@H](O)C(O)O[C@@H]2CO)[C@H](O)[C@@H](O)[C@@H]1N[C@H]1C=C(CO)[C@@H](O)[C@H](O)[C@H]1O (stereo partly drawn) [Formula IIB, O-{4,6-bisdesoxy-4-[1 S-(1,4,6/5)-4,5,6-trihydroxy-3-hydroxymethylcyclohex-2-en-1-ylamino]-α-D-glucopyranosyl}-(1→4)-D-glucopyranose] | – | – | – | – | – | – | –
5,000 MIU/g | – | C[C@H]1O[C@H](O[C@H]2[C@H](O)[C@@H](O)[C@@H](O[C@H]3[C@H](O)[C@@H](O)C(O)O[C@@H]3CO)O[C@@H]2CO)[C@H](O)[C@@H](O)[C@@H]1N[C@H]1C=C(CO)[C@@H](O[C@H]2O[C@H](CO)[C@@H](O)[C@H](O)[C@H]2O)[C@H](O)[C@H]1O (stereo partly drawn) [Formula V, O-{4,6-bisdesoxy-4-[1 S-(1,4,6/5)-4,5,6-trihydroxy-3-hydroxymethyl-4-O-α-D-glucopyranosyl-(1→4)-cyclohex-2-en-1-ylamino]-α-D-glycopyranosyl}-(1→4)-O-α-D-glucopyranosyl-(1→4)-D-glucopyranose] | – | – | – | – | – | – | –

SMILES | Maltase Inhibition (maltase) | solubility (Solubility; water, dimethylformamide, dimethylsulfoxide, methanol and hot ethanol) | Blood Glucose (Mean ± SD) (glucose absorption; glucose + 30 mg, 15 Min.) | Blood Glucose (Mean ± SD) (glucose absorption; glucose + 30 mg, 30 Min.) | Blood Glucose (Mean ± SD) (glucose absorption; glucose + 30 mg, 45 Min.) | Blood Glucose (Mean ± SD) (glucose absorption; glucose + 60 mg, 15 Min.) | Blood Glucose (Mean ± SD) (glucose absorption; glucose + 60 mg, 30 Min.) | Blood Glucose (Mean ± SD) (glucose absorption; glucose + 60 mg, 45 Min.) | water solubility (Solubility)
C[C@H]1O[C@H](O[C@H]2[C@H](O)[C@@H](O)[C@@H](O[C@H]3[C@H](O)[C@@H](O)C(O)O[C@@H]3CO)O[C@@H]2CO)[C@H](O)[C@@H](O)[C@@H]1N[C@H]1C=C(CO)[C@@H](O)[C@H](O)[C@H]1O (stereo partly drawn) [Formula IIIB, O-{4,6-bisdesoxy-4-[1 S-(1,4,6/5)-4,5,6-trihydroxy-3-hydroxymethylcyclohex-2-en-1-ylamino]-α-D-glucopyranosyl}-(1→4)-O-α-D-glucopyranosyl-(1→4)-D-glucopyranose] | 15,000 MIU/g | – | 135 ± 13 mg% | 128 ± 5.5 mg% | 132 ± 7.3 mg% | 125 ± 13 mg% | 118 ± 2.9 mg% | 130 ± 9.0 mg% | readily water-soluble
